What was measured:
Mus musculus [1] = assay: Anticonvulsant activity in MES-induced seizure Kunming mouse model assessed as protection against tonic hind limb extension at 30 mg/kg, ip measured after 30 min; format: functional, organism-based
[2] = biological target: GABA-A receptor; alpha-1/beta-2/gamma-2 (Homo sapiens) (UniProt P14867+P47870+P18507); assay: Potentiation of recombinant human alpha1/beta2/gamma2 GABA receptor expressed in T-REX-CHO cells assessed as fold increase in current amplitude by measuring maximum efficacy by whole-cell patch clamp assay; format: cell-based; conditions: filed as activator, time 24-48 hrs
Mus musculus [3] = assay: Antiepileptic activity in PTZ induced Kunming mouse model assessed as protection of seizure at 30 mg/kg, ip incubated for 30 min prior to PTZ stimulation relative to control; format: functional; conditions: 0.5 h
[4] = Drug concentration in male Sprague-Dawley rat plasma at 30 mg/kg, IG administered once measured after 0.25 to 8 hrs by HPLC analysis; format: ADME, organism-based; conditions: in vivo, po, time 0.25-8 hrs
[5] = Protection index, ratio of TD50 for neurotoxicity in ip dosed scPTZ induced Kunming mouse to ED50 for anticonvulsant activity in ip dosed scPTZ induced Kunming mouse; format: toxicity, organism-based; conditions: in vivo, read-out: Ratio TD50/ED50
[6] = biological target: T1, GABA-A receptor; alpha-1/beta-2/gamma-2 (Homo sapiens, UniProt P14867+P18507+P47870); assay: Potentiation of recombinant human alpha1/beta2/gamma2 GABA receptor expressed in T-REX-CHO cells assessed as increase in current amplitude by whole-cell patch clamp assay; format: cell-based
T1 sequence (P14867 whole entry): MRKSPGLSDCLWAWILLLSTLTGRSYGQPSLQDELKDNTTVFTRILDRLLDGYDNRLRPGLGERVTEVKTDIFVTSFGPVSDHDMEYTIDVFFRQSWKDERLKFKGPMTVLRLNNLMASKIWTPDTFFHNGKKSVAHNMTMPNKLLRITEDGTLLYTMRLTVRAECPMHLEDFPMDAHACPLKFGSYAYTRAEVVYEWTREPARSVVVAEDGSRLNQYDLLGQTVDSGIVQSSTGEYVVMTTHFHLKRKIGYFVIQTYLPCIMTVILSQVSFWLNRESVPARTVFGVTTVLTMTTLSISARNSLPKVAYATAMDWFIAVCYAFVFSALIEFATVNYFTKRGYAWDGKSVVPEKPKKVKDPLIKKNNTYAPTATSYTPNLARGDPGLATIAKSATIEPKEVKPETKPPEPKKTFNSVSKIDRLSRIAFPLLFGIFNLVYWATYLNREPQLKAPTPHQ
T1 sequence (P47870 whole entry): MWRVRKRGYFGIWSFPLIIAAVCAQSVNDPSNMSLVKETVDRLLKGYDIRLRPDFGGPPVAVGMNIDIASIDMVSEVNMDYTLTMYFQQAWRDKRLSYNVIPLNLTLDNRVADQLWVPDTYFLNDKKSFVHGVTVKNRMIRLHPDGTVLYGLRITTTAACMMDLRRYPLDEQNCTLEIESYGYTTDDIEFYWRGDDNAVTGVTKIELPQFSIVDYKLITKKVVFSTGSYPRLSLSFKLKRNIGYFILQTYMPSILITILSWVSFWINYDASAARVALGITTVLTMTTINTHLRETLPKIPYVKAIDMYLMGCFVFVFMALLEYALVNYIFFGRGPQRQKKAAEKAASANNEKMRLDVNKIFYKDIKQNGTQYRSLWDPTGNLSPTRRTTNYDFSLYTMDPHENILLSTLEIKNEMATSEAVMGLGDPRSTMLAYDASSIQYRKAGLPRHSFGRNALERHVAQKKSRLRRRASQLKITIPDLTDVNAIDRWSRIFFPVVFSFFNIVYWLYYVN
T1 sequence (P18507 whole entry): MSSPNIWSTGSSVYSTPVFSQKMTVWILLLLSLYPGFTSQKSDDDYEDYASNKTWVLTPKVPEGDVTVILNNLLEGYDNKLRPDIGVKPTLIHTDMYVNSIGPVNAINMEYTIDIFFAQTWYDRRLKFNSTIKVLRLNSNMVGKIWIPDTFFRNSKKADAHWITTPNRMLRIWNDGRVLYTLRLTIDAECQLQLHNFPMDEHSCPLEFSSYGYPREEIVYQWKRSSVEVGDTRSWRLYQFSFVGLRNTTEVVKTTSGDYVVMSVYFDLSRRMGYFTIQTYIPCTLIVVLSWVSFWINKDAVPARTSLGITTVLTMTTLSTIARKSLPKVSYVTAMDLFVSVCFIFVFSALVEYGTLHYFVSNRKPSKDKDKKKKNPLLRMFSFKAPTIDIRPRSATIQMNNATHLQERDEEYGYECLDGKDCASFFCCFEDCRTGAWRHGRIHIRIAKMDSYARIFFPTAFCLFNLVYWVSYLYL

Mus musculus [7] = assay: Anticonvulsant activity in ip dosed sc-PTZ induced Kunming mouse model assessed as effective dose measured after 0.5 hrs […]; format: functional
[8] = Drug concentration in male Sprague-Dawley rat brain at 30 mg/kg, IG administered once measured after 0.25 to 8 hrs by HPLC analysis; format: ADME, organism-based; conditions: in vivo, po, time 0.25-8 hrs
[9] = biological target: GABA-A receptor; anion channel (Rattus norvegicus) (UniProt O09028+P15431+P18506+P18508+P19969+P20236+P23574+P23576+P28471+P28473+P30191+P62813+P63079+P63138+Q91ZM7+Q9ES14); assay: Potentiation of GABAA receptor in Sprague-Dawley rat hippocampal neurons assessed as increase in current amplitude by whole-cell voltage-clamp assay; format: cell-based; conditions: Hippocampal neuron, filed as activator, dose 0.1-10 µM
[10] = Neurotoxicity in ip dosed sc-PTZ induced Kunming mouse measured after 0.5 hrs by rotarod test; format: toxicity, organism-based; conditions: in vivo
[11] = biological target: Sodium channel protein type 2 subunit alpha (Homo sapiens, UniProt Q99250); assay: Inhibition of Nav 1.2 (unknown origin) expressed in HEK293 cells at -20 mV to -120 mV holding potential under inactivation state by whole-cell patch clamp analysis; format: cell-based
Sequence of Sodium channel protein type 2 subunit alpha (Q99250 whole entry): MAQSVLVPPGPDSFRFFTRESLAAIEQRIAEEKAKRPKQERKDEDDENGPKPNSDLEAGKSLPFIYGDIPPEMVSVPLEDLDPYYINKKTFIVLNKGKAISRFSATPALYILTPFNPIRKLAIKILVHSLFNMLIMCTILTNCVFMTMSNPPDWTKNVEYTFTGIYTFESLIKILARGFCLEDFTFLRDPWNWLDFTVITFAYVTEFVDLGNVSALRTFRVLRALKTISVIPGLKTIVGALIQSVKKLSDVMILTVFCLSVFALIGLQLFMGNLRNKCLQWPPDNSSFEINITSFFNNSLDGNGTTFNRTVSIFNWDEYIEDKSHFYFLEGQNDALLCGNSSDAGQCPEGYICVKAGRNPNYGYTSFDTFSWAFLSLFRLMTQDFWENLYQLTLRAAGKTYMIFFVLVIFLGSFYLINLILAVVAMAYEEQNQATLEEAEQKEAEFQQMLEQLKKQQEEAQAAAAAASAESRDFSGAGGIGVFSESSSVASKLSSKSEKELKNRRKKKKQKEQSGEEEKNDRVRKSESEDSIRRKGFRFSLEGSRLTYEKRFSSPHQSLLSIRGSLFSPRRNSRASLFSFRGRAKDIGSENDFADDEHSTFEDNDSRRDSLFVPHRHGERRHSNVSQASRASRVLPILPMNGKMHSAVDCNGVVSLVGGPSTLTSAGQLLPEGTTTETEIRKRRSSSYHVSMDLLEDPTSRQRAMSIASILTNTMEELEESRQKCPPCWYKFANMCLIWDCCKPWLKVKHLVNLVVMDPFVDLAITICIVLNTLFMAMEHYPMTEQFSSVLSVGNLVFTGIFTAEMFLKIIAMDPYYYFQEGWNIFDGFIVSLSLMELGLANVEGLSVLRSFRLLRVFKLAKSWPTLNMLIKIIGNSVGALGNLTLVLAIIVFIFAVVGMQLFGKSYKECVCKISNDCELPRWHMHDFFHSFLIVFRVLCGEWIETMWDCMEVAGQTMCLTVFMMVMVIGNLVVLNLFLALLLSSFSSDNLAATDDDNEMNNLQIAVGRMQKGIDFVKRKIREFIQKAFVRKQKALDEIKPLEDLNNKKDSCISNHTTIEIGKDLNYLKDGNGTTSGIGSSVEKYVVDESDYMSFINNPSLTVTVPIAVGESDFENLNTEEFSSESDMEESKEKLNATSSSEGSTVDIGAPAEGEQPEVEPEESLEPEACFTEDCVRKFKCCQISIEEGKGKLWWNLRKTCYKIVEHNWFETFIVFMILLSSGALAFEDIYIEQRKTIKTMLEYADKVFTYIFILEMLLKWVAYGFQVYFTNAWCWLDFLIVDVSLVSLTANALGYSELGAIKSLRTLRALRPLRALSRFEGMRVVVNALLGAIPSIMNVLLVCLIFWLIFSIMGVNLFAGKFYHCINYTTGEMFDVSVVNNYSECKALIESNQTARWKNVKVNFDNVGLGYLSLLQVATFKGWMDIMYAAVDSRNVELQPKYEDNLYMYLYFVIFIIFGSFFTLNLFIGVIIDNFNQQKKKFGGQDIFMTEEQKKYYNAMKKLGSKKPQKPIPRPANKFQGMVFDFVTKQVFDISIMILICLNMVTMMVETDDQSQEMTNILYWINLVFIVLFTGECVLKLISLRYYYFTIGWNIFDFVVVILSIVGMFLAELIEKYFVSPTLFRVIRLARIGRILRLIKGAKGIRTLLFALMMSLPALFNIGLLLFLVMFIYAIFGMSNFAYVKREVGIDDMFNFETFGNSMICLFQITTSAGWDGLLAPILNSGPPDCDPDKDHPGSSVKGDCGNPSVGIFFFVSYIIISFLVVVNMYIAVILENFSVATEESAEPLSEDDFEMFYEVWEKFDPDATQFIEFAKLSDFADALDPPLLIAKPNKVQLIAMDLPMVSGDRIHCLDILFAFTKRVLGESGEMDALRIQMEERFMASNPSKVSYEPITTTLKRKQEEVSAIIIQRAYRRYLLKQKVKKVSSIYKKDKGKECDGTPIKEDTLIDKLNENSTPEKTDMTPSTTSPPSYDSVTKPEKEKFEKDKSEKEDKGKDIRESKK

fold change (FC) [2] | Cp [4] | EC50 [6] | Ct [8] | Activity [9] | IC50 [11] | SMILES | Activity (Mus musculus [1]) | Activity (Mus musculus [3]) | selectivity ratio [5] | ED50 (Mus musculus [7]) | TD50 at 0.5 h [10]
 |  |  |  |  |  | O=C1CC(c2ccccc2Cl)n2nc(-c3ccccc3F)nc2N1 (configuration not stated) | Active; Moderate Protection |  |  |  | 
2.21 | 1186.41 ng/mL | 0.82 µM | 661.3 ng/mL | Dose-dependent-effect |  | CCCCN1C(=O)CC(c2ccccc2)n2nc(-c3ccc(C)cc3)nc21 (configuration not stated) |  | 100% | > 14.6 | 18.3 mg/kg | > 267 mg/kg
1.14 | 866.91 ng/mL |  | 458.72 ng/mL |  | 19.9 µM | O=C1CC(c2ccccc2F)n2nc(-c3ccccc3F)nc2N1 (configuration not stated) | Active; Moderate Protection | 100% | > 11.3 | 23.7 mg/kg | > 267 mg/kg
 |  |  |  |  |  | NC(=O)N1c2ccccc2C=Cc2ccccc21 [CARBAMAZEPINE] |  |  |  | > 100 mg/kg | 
 |  |  |  |  |  | O=C1NC(=O)C(c2ccccc2)(c2ccccc2)N1 [PHENYTOIN] |  |  |  | > 300 mg/kg | 
2.41 | 1202.06 ng/mL | 1.24 µM | 696.98 ng/mL | Dose-dependent-effect | 35 µM | CCCCN1C(=O)CC(c2ccccc2)n2nc(-c3ccc(OC)cc3)nc21 (configuration not stated) |  | 100% | > 15.6 | 17.1 mg/kg | > 267 mg/kg
 |  |  |  |  |  | CCCC(CCC)C(=O)O [VALPROIC ACID] |  |  |  | 149 mg/kg | 
